Laboratory results from ChEMBL document CHEMBL5584314, “Identification of an m6A Natural Inhibitor, Lobeline, That Reverses Lenvatinib Resistance in Hepatocellular Tumors” (J Nat Prod, 2024).
Active and inactive are the calls of the source. The calls are words filed in the database; no cut-off is given here.

Key:
[1] = tested on: Lenvatinib-resistant Hep3B/Len; test: Antiproliferative activity against human Lenvatinib-resistant Hep3B/Len cells assessed as inhibition of cell viability up to 40 uM after 72 hrs by CCK-8 assay; type: functional, cell-based
[2] = target: N6-adenosine-methyltransferase catalytic subunit (Homo sapiens) (UniProt Q86U44); test: Inhibition of METTL3 in human Lenvatinib-resistant Huh7/Len cells assessed as effect on MYC mRNA expression level at 2 uM incubated for 72 hrs by RT-PCR analysis; type: cell-based
[3] = target: N6-adenosine-methyltransferase catalytic subunit (Homo sapiens) (UniProt Q86U44); test: Inhibition of METTL3 in human Lenvatinib-resistant Huh7/Len cells assessed as effect on CTSL mRNA expression level at 2 uM incubated for 72 hrs by RT-PCR analysis; type: cell-based
[4] = tested on: Lenvatinib-resistant Huh7/Len; test: Antitumor activity against human Lenvatinib-resistant Huh7/Len cells xenografted in BALB/c nude mouse assessed as tumor growth inhibition at 1.5 mg/kg, ip cotreated with lenvatinib 5 times per week for 3 weeks; type: functional, organism-based
[5] = Toxicity in BALB/c nude mouse xenografted with human Lenvatinib-resistant Huh7/Len cells assessed as changes in organ index at 1.5 mg/kg, ip cotreated with lenvatinib 5 times per week for 3 weeks; type: organism-based; settings: in vivo, 504 h
[6] = target: N6-adenosine-methyltransferase catalytic subunit (Homo sapiens) (UniProt Q86U44); test: Inhibition of METTL3 in human Huh-7 cells assessed as down regulation of m6A RNA level at 2 uM incubated for 72 hrs by Dot blot assay; type: cell-based
[7] = target: N6-adenosine-methyltransferase catalytic subunit (Homo sapiens) (UniProt Q86U44); test: Inhibition of METTL3 in human Lenvatinib-resistant Huh7/Len cells assessed as effect on MMP3 mRNA expression level at 2 uM incubated for 72 hrs by RT-PCR analysis; type: cell-based
[8] = tested on: Lenvatinib-resistant Hep3B/Len; test: Antiproliferative activity against human Lenvatinib-resistant Hep3B/Len cells assessed as inhibition of cell viability at 5 uM after 72 hrs in presence of lenvatinib by CCK-8 assay; type: functional, cell-based
[9] = target: N6-adenosine-methyltransferase catalytic subunit (Homo sapiens) (UniProt Q86U44); test: Inhibition of METTL3 in human Lenvatinib-resistant Huh7/Len cells assessed as effect on TIBIM6 mRNA expression level at 2 uM incubated for 72 hrs by RT-PCR analysis; type: cell-based
[10] = tested on: Lenvatinib-resistant Huh7/Len; test: Antitumor activity against human Lenvatinib-resistant Huh7/Len cells xenografted in BALB/c nude mouse assessed as reduction in m6A level in tumor tissue at 1.5 mg/kg, ip 5 times per week for 3 weeks by immunohistochemistry analysis; type: functional, organism-based
[11] = tested on: Lenvatinib-resistant Huh7/Len; test: Antitumor activity against human Lenvatinib-resistant Huh7/Len cells xenografted in BALB/c nude mouse assessed as reduction in m6A RNA level at 1.5 mg/kg, ip 5 times per week for 3 weeks by Dot blot assay; type: functional, organism-based
[12] = target: N6-adenosine-methyltransferase catalytic subunit (Homo sapiens) (UniProt Q86U44); test: Binding affinity to METTL3 in human Huh-7 cells assessed as thermal stability at 44 to 64 degreeC at 2 uM incubated for 30 mins followed by […] analysis; type: cell-based
[13] = target: N6-adenosine-methyltransferase catalytic subunit (Homo sapiens) (UniProt Q86U44); test: Inhibition of METTL3 in human Lenvatinib-resistant Huh7/Len cells assessed as effect on UCK2 mRNA expression level at 2 uM incubated for 72 hrs by RT-PCR analysis; type: cell-based
[14] = tested on: Lenvatinib-resistant Huh7/Len; test: Anticancer activity against human Lenvatinib-resistant Huh7/Len cells assessed as reduction in UBE3B protein expression at 2 uM by Western blot analysis; type: functional, cell-based
[15] = target: N6-adenosine-methyltransferase catalytic subunit (Homo sapiens) (UniProt Q86U44); test: Inhibition of METTL3 in human Lenvatinib-resistant Huh7/Len cells assessed as effect on EZH2 mRNA expression level at 2 uM incubated for 72 hrs by RT-PCR analysis; type: cell-based
[16] = tested on: Lenvatinib-resistant Huh7/Len; test: Inhibition of cell migration in human Lenvatinib-resistant Huh7/Len cells at 5 uM incubated for 48 hrs by transwell assay; type: functional, cell-based
[17] = tested on: Lenvatinib-resistant HCC/Len; test: Antitumor activity against human Lenvatinib-resistant HCC/Len cells xenografted in BALB/c nude mouse model of PDX assessed as reduction in Ki-67 protein expression in tumor tissue at 1.5 mg/kg, ip cotreated with lenvatinib 5 times per week for 3 weeks by immunohistochemistry analysis relative to control; type: functional, organism-based
[18] = tested on: Lenvatinib-resistant HCC/Len; test: Antitumor activity against human Lenvatinib-resistant HCC/Len cells xenografted in BALB/c nude mouse model of PDX assessed as reduction in m6A expression in tumor tissue at 1.5 mg/kg, ip cotreated with lenvatinib 5 times per week for 3 weeks by immunohistochemistry analysis relative to control; type: functional, organism-based
[19] = tested on: Lenvatinib-resistant HCC/Len; test: Antitumor activity against human Lenvatinib-resistant HCC/Len cells xenografted in BALB/c nude mouse model of PDX assessed as reduction in METTL3 protein expression at 1.5 mg/kg, ip 5 times per week for 3 weeks by Western blot assay; type: functional, organism-based
[20] = target: N6-adenosine-methyltransferase catalytic subunit (Homo sapiens) (UniProt Q86U44); test: Inhibition of METTL3 in human Lenvatinib-resistant Huh7/Len cells assessed as effect on IFFO1 mRNA expression level at 2 uM incubated for 72 hrs by RT-PCR analysis; type: cell-based
[21] = tested on: Lenvatinib-resistant HCC/Len; test: Antitumor activity against human Lenvatinib-resistant HCC/Len cells xenografted in BALB/c nude mouse model of PDX assessed as inhibition of tumor volume at 1.5 mg/kg, ip cotreated with lenvatinib 5 times per week for 3 weeks; type: functional; settings: 504 h
[22] = Toxicity in BALB/c nude mouse PDX model xenografted with human Lenvatinib-resistant HCC/Len cells assessed as changes in body weight at 1.5 mg/kg, ip administered 5 times per week for 3 weeks; type: organism-based; settings: in vivo, 504 h
[23] = target: N6-adenosine-methyltransferase catalytic subunit (Homo sapiens) (UniProt Q86U44); test: Inhibition of METTL3 in human Huh-7 cells assessed as down regulation of m6A RNA level incubated for 72 hrs by Dot blot assay; type: cell-based; settings: dose 5-10 µM
[24] = tested on: Lenvatinib-resistant Huh7/Len; test: Anticancer activity against human Lenvatinib-resistant Huh7/Len cells assessed as increase in GGA motif at m6A site by MeRIP-m6A -sequencing analysis; type: functional, cell-based
[25] = target: N6-adenosine-methyltransferase catalytic subunit (Homo sapiens) (UniProt Q86U44); test: Inhibition of METTL3 in human Lenvatinib-resistant Huh7/Len cells assessed as effect on NPCL1 mRNA expression level at 2 uM incubated for 72 hrs by RT-PCR analysis; type: cell-based
[26] = tested on: Lenvatinib-resistant Huh7/Len; test: Induction of apoptosis in human Lenvatinib-resistant Huh7/Len cells xenografted in BALB/c nude mouse assessed as apoptotic cells in tumor tissue at 1.5 mg/kg, ip cotreated with lenvatinib 5 times per week for 3 weeks by TUNEL assay; type: functional, organism-based
[27] = Toxicity in BALB/c nude mouse PDX model xenografted with human Lenvatinib-resistant HCC/Len cells assessed as changes in body weight at 1.5 mg/kg, ip cotreated with lenvatinib 5 times per week for 3 weeks; type: organism-based; settings: in vivo, 504 h
[28] = tested on: Lenvatinib-resistant Huh7/Len; test: Anticancer activity against human Lenvatinib-resistant Huh7/Len cells assessed as increase in m6A modification in terminator region by MeRIP-m6A -sequencing analysis; type: functional, cell-based
[29] = tested on: Lenvatinib-resistant Huh7/Len; test: Anticancer activity against human Lenvatinib-resistant Huh7/Len cells assessed as reduction in UBE3B mRNA expression at 2 uM by qPCR analysis; type: functional, cell-based
[30] = target: N6-adenosine-methyltransferase catalytic subunit (Homo sapiens) (UniProt Q86U44); test: Inhibition of METTL3 in human Lenvatinib-resistant Huh7/Len cells assessed as effect on LATS1 mRNA expression level at 2 uM incubated for 72 hrs by RT-PCR analysis; type: cell-based
[31] = tested on: Lenvatinib-resistant Hep3B/Len; test: Antiproliferative activity against human Lenvatinib-resistant Hep3B/Len cells assessed as inhibition of clone formation ability at 5 uM preincubated for 72 hrs and measured after 7 to 10 days in presence of lenvatinib by crystal violet staining based assay; type: functional, cell-based; settings: time 10-13 day

N6-adenosine-methyltransferase catalytic subunit (Homo sapiens), sequence (Q86U44 whole entry): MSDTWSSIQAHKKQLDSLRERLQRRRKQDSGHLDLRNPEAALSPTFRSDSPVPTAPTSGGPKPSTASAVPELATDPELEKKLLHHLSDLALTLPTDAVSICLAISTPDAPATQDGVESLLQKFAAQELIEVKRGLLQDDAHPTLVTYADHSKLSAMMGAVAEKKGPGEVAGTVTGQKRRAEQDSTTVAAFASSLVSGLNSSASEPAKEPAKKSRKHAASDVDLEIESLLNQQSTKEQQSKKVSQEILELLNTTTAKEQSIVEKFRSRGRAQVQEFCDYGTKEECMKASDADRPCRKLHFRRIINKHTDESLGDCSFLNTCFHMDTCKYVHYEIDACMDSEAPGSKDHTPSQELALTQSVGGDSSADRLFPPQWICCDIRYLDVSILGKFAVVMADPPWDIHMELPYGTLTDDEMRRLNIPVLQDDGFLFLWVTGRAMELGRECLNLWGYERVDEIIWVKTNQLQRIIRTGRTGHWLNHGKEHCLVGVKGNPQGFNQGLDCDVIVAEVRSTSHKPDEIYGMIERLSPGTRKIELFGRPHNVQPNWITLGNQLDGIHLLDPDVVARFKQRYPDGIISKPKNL

For `CN1[C@@H](CC(=O)c2ccccc2)CCC[C@H]1C[C@H](O)c1ccccc1` [LOBELINE], the inhibition [1] was “Active”, the inhibition [2] was “Active” and the inhibition [3] was “Active”. The TGI [4] was “Active”, the Activity [5] was “Non-Toxic” and the inhibition [6] was “Active”. For the same molecule, the inhibition [7] was “Active”, the inhibition [8] was “Active” and the inhibition [9] was “Active”. For the same molecule, the Activity [10] was “Active”, the Activity [11] was “inactive” and the Activity [12] was “Active”. The inhibition [13] was “Active”, the Activity [14] was “Active” and the inhibition [15] was “Active”. For the same molecule, the inhibition [16] was “inactive”, the Activity [17] was “Active” and the Activity [18] was “Active”. The Activity [19] was “inactive”, the inhibition [20] was “Active” and the inhibition in vivo at 1.5 mg/kg [21] was 60%. For the same molecule, the Activity [22] was “Non-Toxic”, the inhibition [23] was “Dose-Dependent Effect” and the Activity [24] was “Active”. The inhibition [25] was “Active”, the Activity [26] was “Active” and the Activity [27] was “Non-Toxic”. The Activity [28] was “Active”, the Activity [29] was “Active” and the inhibition [30] was “Active”. For the same molecule, the inhibition [31] was “inactive”.
